Values of other authors, collected in US8445278B2, “Process for producing decellularized biological tissues” (Medtronic, Inc., priority 2005, dated 2013).
pIC50: −log10 of the molar value.

System: fresh rat hepatocytes

Structure (SMILES): CCCCCCCCCCCCOS(=O)(=O)[O-].[Na+] [SDS, sodium dodecyl sulphate]
- pIC50: 4.31
- concentration at which SDS is toxic: ≥ 10 µM
